Reference: patent US7273847B2, “Peptides with antioxidant and antimicrobial properties” (priority 2000, dated 2007)
“Also recorded” adds a separate entry of the source.

B1: SP-D: Native surfactant protein D from rat alveolar wash; mouse SP-D was used interchangeably with rat SP-D (protein)
chain: AEMKSLSQRSVPNTCTLVMCSPTENGLPGRDGRDGREGPRGEKGDPGLPGPMGLSGLQGPTGPVGPKGENGSAGEPGPKGERGLSGPPGLPGIPGPAGKEGPSGKQGNIGPQGKPGPKGEAGPKGEVGAPGMQGSTGAKGSTGPKGERGAPGVQGAPGNAGAAGPAGPAGPQGAPGSRGPPGLKGDRGVPGDRGIKGESGLPDSAALRQQMEALKGKLQRLEVAFSHYQKAALFPDGRSVGDKIFRTADSEKPFEDAQEMCKQAGGQLASPRSATENAAIQQLITAHNKAAFLSMTDVGTEGKFTYPTGEPLVYSNWAPGEPNNNGGAENCVEIFTNGQWNDKACGEQRLVICEF

Tests used:
LDL [1] = assay: Continuous spectrophotometric monitoring of conjugated diene formation during copper-induced LDL oxidation; type: biochemical, human; details: for Effect of addition during the propagation phase of oxidation: 10 μg/ml SP-A at 95, 175 or 195 minutes, 1 μg/ml SP-D at 95, 125 or 155 minutes; for Effect on accumulation of conjugated dienes when included at zero time: SP-A 1.0-10 μg/ml, SP-D 0.01-1 μg/ml; for Concentration of complete inhibition of oxidation (conjugated diene formation): added at zero time, 10 μM copper, room temperature, absorbance 234 nm
Description: Stock solutions of 10 mM CuSO4 were freshly prepared daily. Reaction mixtures containing 1 mg/mi surfactant lipids or 150 μg/ml LDL were incubated with 10 μM CuSO4 for 24 hours or 4 hours, respectively, in the presence of putative oxidation inhibitors or controls at 37° C. in a shaking water bath in accordance with the method of Gelvan et al., Biochim. Biophys. Acta 1035(3):353-360 (1990). Control reactions which included LDL only, 10 μM CuSO4 or protein controls of bovine serum albumin (BSA), rat IgG, recombinant MBP, rat serum and human complement C1q were performed concurrently with experimental samples. Thiobarbituric acid-reactive substances (TBARS) were measured using a method adapted from Gelvan et al., Biochim. Biophys. Acta 1035(3):353-360 (1990). Samples and 0-10 μM […] standards were developed by addition of a solution composed of 0.375% thiobarbituric acid, 15% trichloroacetic acid, and 0.25N HCl at a volume ratio of 1:2, sample: developer. Following incubation at 95° C. for 30 minutes and centrifugation at 14,000 rpm for 15 minutes, an aliquot was read at 540 nm in a spectrophotometer. For continuous assessment of lipid oxidation, the accumulation of conjugated dienes during LDL oxidation was monitored spectrophotometrically in accordance with the method of Esterbauer et al., Free Rad. Med. Biol. 13, 341-390 (1992). Mixtures of 150 μg/ml LDL, 10 μM copper, and various amounts of surfactant proteins or control proteins were placed in quartz cuvettes and allowed to oxidize at room temperature over 335 minutes. Conjugated diene formation was assessed by measuring absorbance at 234 nm in a spectrophotometer.
The temporal relationship between the addition of SP-A or SP-D and the inhibition of LDL oxidation was determined spectrophotometrically by continuously monitoring conjugated diene accumulation associated with exposure to copper, in accordance with the method of Esterbauer et al., Free Rad. Med. Biol. 13:341-390 (1992). The assay is based on the oxidation dependent rearrangement of 1,4 pentadienyl double bonds of LDL lipids to 1,3-butadienyl double bonds, which absorb in the ultraviolet range. In the presence of 10 μM copper at room temperature, LDL particles resist oxidation for up to 100 minutes as endogenous antioxidants such as atocopherol are consumed. At that point, the rate of oxidation increases in proportion to the concentration of initiating radicals, reaching a plateau when all unsaturated fatty acids are consumed.
According to FIG. 2, conjugated diene formation during copper-induced LDL oxidation was monitored spectrophotometrically by measuring absorbance at 234 nm.

LDL [2] = assay: Western (immunoblot) analysis of protein carbonyl derivatives formed during copper mediated LDL oxidation; type: biochemical, human; details: SP-A 10 μg/ml, SP-D 1 μg/ml; alkylated SP-A 50 μg/ml, alkylated SP-D 10 μg/ml
Description: Proteins were analyzed for carbonyl modification of amino acid side groups that occur during lipid oxidation, as described in Levine et al., Methods Enzymol. 186, 464-478 (1990). Briefly, proteins that were included in reactions mixtures with LDL and 10 μM copper were derivatized to 2,4-dinitrophenylhydrazones (DNP-hydrazones) by reaction with 2,4-dinitrophenylhydrazine (DNPH), size fractionated by 8-16% SDS-PAGE under reducing conditions and electrophorectically transferred to nitrocellulose membranes (Oxyblot, Intergen). The membrane was sequentially incubated with a rabbit anti-DNP IgG and a horseradish peroxidase-conjugated goat anti-rabbit IgG. Blots were developed by HRP-dependent oxidation of a chemiluminescent substrate, and visualized using autoradiography.
To determine if the surfactant proteins act as sinks for reactive lipid intermediates, covalent modification of SP-A and SP-D during LDL oxidation was assessed using a western analysis technique that detects carbonyl adducts (Levine et al., Methods Enzymol. 186: 464-78 (1990)). As depicted by FIG. 4, oxidative modification of proteins that occurred during copper induced LDL oxidation were determined by Western analysis using an antibody to DNP-derivatized carbonyl moieties. Reaction mixtures contained LDL only, LDL+Cu^2+, LDL+Cu^2++albumin+10 μg/ml SP-A, LDL+Cu^2++albumin+1 μg/ml SP-D, LDL+Cu^2++albumin, LDL+Cu^2++albumin+50 μg/ml iodoacetamide treated SP-A, LDL+Cu^2++albumin+10 μg/ml iodoacetamide treated SP-D, 50 μg/ml albumin+50 μg/ml iodoacetamide treated SP-A, albumin+10 μg/ml iodoacetamide treated SP-D.

[3] = tested on: P. aeruginosa (PAO1 mutant); assay: Radial diffusion assay; type: cell-based
E. coli strain (E69) = assay: Growth inhibition (radius of clearing) of E. coli clinical isolate with or without OmpA; type: cell-based; details: for Growth inhibition of ΔOmpA bacteria with plasmid driven OmpA expression: OmpA replaced; for Growth inhibition of OmpA deficient (ΔOmpA) E. coli: judged by the radius of clearing around the well
Description: SP-A has been reported to bind to the outer membrane protein (OmpA) of Hemophilus influenza, a porin that facilitates the uptake of nutrients from the environment. The hypothesis that binding of collectins to OmpA mediates bacterial growth inhibition by SP-A and SP-D was tested. These experiments were performed using a genetically engineered clinical isolate of E. coli that was rendered OmpA deficient (ΔOmpA) by transposon mutagenesis.

E. coli = assay: CFU count over a six hour incubation; type: cell-based; details: at 1 and 2 hrs; confounded by bacterial aggregation
surfactant lipids = assay: TBARS assay of copper-induced oxidation of surfactant lipids; type: biochemical; details: for I.C.50 (half maximal concentration) for inhibition of copper-induced oxidation of surfactant lipids / Concentration of complete inhibition / maximal protection of surfactant lipids: 10 μM Cu2+, 24 hr, TBARS; for I.C.50 (half maximal concentration) for inhibition of copper-induced oxidation of surfactant lipids: 37° C.; for Lipid peroxidation (LPO) produced by copper or iron: 24 hr incubation, 10 μM copper or iron; for TBARS Surfactant lipids Malondialdehyde: mean ± S.E.M., n=3; for IC50: assuming rat SP-A M.W.=600,000, rat SP-D M.W.=500,000, read-out: I.C.50 for inhibition of copper-induced oxidation of surfactant lipids
[4] = surfactant lipids, copper-induced

Molecule | Effect of addition during the propagation phase of oxidation (LDL [1]) | Effect on accumulation of conjugated dienes when included at zero time (LDL [1]) | Concentration of complete inhibition of oxidation (conjugated diene formation) (LDL [1]) [µg/mL] | LDL oxidation in carbonyl Western analysis (LDL [2]) | Growth inhibition of ΔOmpA bacteria with plasmid driven OmpA expression (E. coli strain (E69)) | Growth inhibition of ΔOmpA organism with empty vector control (E. coli strain (E69)) | Growth inhibition of OmpA deficient (ΔOmpA) E. coli (E. coli strain (E69)) | Growth of parental E. coli strain (E69) (E. coli strain (E69)) | I.C.50 (half maximal concentration) for inhibition of copper-induced oxidation of surfactant lipids (surfactant lipids) [µg/mL] | Concentration of complete inhibition / maximal protection of surfactant lipids (surfactant lipids) [µg/mL] | Lipid peroxidation (LPO) produced by copper or iron (surfactant lipids) | IC50 (surfactant lipids) [nM] | Effect of alkylation with iodoacetamide on the antioxidant effects (surfactant lipids; [4]) | further results
SP-A: Native surfactant protein A isolated from the alveolar wash of silica-pretreated rats | arrested lipid oxidation almost immediately; also recorded: conjugated diene formation was completely arrested at the point of addition | blocked the accumulation of conjugated dienes in a dose-dependent manner | 10 | blocked LDL oxidation without the appearance of carbonyl-modified species | attenuated growth inhibition | inhibited to the same extent as the ΔOmpA organism | growth inhibition was increased | inhibited the growth | 5.07 | 10 | block lipid peroxidation | 8.4 | completely blocked the antioxidant effects | Growth of P. aeruginosa (PAO1 mutant) [3]: inhibited the growth; Decrease in number of CFUs (E. coli): 90%; TBARS Surfactant lipids Malondialdehyde (surfactant lipids; Lipid + Cu2+ + 10 μg/ml protein): 0.23 ± 0.01 µM; Effect of presaturation with 70 uM copper or addition of 2 mM Ca2+ on antioxidant activity (surfactant lipids; [4]): neither the presaturation of SP-A with 70 uM copper, as indicated in Table 1, below, or the addition of 2 mM Ca^2+ (not shown) had a significant effect on the activity; Concentration required to achieve the same level of inhibition of oxidation (surfactant lipids; surfactant lipids, level reached by 500 μg/ml rat serum): about 5.0 μg/ml
B1 | arrested lipid oxidation almost immediately; also recorded: conjugated diene formation was completely arrested at the point of addition | blocked the accumulation of conjugated dienes in a dose-dependent manner | 0.5 | blocked LDL oxidation without the appearance of carbonyl-modified species | attenuated growth inhibition | inhibited to the same extent as the ΔOmpA organism | growth inhibition was increased | inhibited the growth | 0.11 | ≥ 0.5 | block lipid peroxidation | 0.2 | completely blocked the antioxidant effects | TBARS Surfactant lipids Malondialdehyde (surfactant lipids; Lipid + Cu2+ + 1 μg/ml protein): 0.27 ± 0.07 µM; I.C.50 fold lower than ApoAIV (surfactant lipids; surfactant lipids oxidation): ~100 fold; I.C.50 fold lower than SP-A (surfactant lipids; surfactant lipids oxidation): approximately 35 fold
